Test results published in publication PMC7190724, “Improved GPCR ligands from nanobody tethering” (Nature Communications, 2020).
Where “and” joins values, the source holds several entries; their conditions need not be identical. Equal entries are not always repeated. Where a SMILES comes first, the peptide text is derived from it. [ ]: non-standard residue; d: D form. Aib = CC(C)(N)C(=O)O

Experiments:
[1] = target: T1, PTHR1YFPΔECD (Homo sapiens, UniProt Q03431); experiment: cAMP response (GloSensor luminescence), HEK293 stably expressing PTHR1YFPΔECD (GD5Y); type: cell-based; conditions: peak GloSensor luminescence; mean ± SD, ≥3 independent experiments; read-out: EC50, cAMP induction
T1 construct: expressed in transfected cells; host or cells: HEK293 (clone GD5Y) with GloSensor cAMP reporter
T1 sequence (Q03431 with tags, fused parts or gaps limits assumed): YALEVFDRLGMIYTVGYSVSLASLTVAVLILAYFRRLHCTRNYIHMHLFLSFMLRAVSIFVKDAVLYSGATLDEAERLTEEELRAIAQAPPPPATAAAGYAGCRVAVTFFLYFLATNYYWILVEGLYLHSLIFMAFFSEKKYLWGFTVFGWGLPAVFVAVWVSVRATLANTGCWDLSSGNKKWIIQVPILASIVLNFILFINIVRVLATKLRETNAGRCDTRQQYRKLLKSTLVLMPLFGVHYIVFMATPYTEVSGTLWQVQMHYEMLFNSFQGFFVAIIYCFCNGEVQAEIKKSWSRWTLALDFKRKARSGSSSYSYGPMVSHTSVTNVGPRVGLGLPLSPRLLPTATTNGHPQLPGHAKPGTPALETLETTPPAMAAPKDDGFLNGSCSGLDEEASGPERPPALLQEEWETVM
Procedure: (§1) A HEK293 cell line stably expressing β-Arrestin2-YFP (GBR24) was constructed similarly. PTHR1_6E was produced using the Q5 Site-directed mutagenesis kit (NEB) and used to prepare a stably transfected HEK293-derived cell line. Annotated sequence data for all PTHR1 constructs are found in Supplementary Fig. 19. Aligned sequences of VHHs used in this study are shown in Supplementary Fig. 20.
(§2) These assays were performed as previously described. […] Confluent monolayers of cells were pre-incubated with CO2 independent medium containing D-luciferin (0.5 mM) at 37 °C until a stable baseline level of luminescence was established (20 min). Varying concentrations of ligands were then added, and the time course of luminescence response was recorded using BioTek plate reader.
(§3) Data were processed using Microsoft Excel and GraphPad Prism 6. Data from cAMP dose–response assays were analyzed using a sigmoidal dose–response model with variable slope. Data sets were statistically compared by using Student’s t test (two-tailed) assuming unequal variances for the two sets.

[2] = target: T2, PTHR1GFP (Homo sapiens, UniProt Q03431); experiment: cAMP response (GloSensor luminescence), HEK293 stably expressing PTHR1GFP (GPG10); type: cell-based
T2 sequence (Q03431 27-593): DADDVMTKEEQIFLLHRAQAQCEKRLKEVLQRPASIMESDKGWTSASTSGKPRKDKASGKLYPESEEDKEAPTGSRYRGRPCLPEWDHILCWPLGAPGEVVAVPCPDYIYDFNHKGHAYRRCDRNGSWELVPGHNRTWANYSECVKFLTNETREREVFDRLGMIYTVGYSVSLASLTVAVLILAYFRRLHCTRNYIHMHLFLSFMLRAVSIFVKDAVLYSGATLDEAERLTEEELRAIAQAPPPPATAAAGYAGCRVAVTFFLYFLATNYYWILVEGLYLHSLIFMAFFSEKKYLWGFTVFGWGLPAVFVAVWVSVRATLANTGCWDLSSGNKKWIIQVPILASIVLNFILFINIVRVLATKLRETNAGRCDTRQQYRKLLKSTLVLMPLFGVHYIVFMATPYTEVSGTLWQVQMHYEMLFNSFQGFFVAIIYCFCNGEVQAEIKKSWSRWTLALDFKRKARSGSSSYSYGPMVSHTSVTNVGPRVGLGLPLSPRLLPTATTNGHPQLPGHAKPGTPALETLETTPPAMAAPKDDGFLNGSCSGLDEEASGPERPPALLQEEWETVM
Procedure: (§4) These assays were performed as previously described. Briefly, HEK-293-derived cell lines that stably express the Glosensor cAMP reporter (Promega Corp.)[30] and PTHR1, a PTHR1 variant, or PTHR2 were seeded into white sided 96-well plates (50,000 cells/well) and grown to confluency. Confluent monolayers of cells were pre-incubated with CO2 independent medium containing D-luciferin (0.5 mM) at 37 °C until a stable baseline level of luminescence was established (20 min). Varying concentrations of ligands were then added, and the time course of luminescence response was recorded using BioTek plate reader. The maximal luminescence response (observed 12–16 min after ligand addition) was used to construct dose-response data sets (Table 1, Supplementary Fig. 6).
as §3
Supplementary Figure 1. […]
GFP variant known as pHluorin2 engrafted into the receptor(ref. 19, main text). c) HEK293 cells stably expressing PTHR1-GFP were treated with varied doses of the indicated peptides or conjugates and activation was assessed by measuring luminescence from a cAMP-activated luciferase variant. Values listed represent EC50 values (mean ± SD). Each value comes from ≥ 3 independent experiments. Further details, including the number of replicates for each measurement and the normalized maximal responses induced, are reported in Supplementary Table 1. […]
than 5% of the maximal response induced for that cell line.
Peptide or conjugate PTHR1GFP

[3] = target: T3, hPTHR2 (Homo sapiens, UniProt P49190); experiment: cAMP response (GloSensor luminescence), HEK293 stably expressing hPTHR2; type: cell-based; conditions: for EC50: peak GloSensor luminescence, mean ± SD, n = 3-4, read-out: EC50, cAMP induction
T3 construct: expressed in transfected cells
Procedure: as §4, §3

[4] = target: T4, hPTHR1 (Homo sapiens, UniProt Q03431); experiment: cAMP response (GloSensor luminescence), HEK293 stably expressing human PTHR1 (GP2.3); type: cell-based; conditions: human PTHR1 cells
T4 construct: expressed in transfected cells; host or cells: HEK293 (clone GP2.3) with GloSensor cAMP reporter
T4 sequence (Q03431 27-593): T2 sequence (Q03431 27-593)
Procedure: as §1, §2, §3

[5] = test system: blood ionized calcium; experiment: Calcemic response in mice (blood ionized calcium); type: in vivo, mouse; conditions: for iCa measurement, blood ionized calcium: individual mouse
Procedure: Fig. 5 VHH conjugation potentiates an in vivo response. a Schematic of the experiment performed in mice. b Measurement of blood ionized calcium levels in mice injected with PTH and conjugates. Data presented is from a single experiment. The double line break represents a discontinuity in the Y-axis. Mice (CD1 females, 11 weeks) were injected subcutaneously with the indicated ligand (dose = 35 nmol/kg). Blood was drawn at the indicated time points and analyzed for ionized calcium levels. Data points indicate mean ± standard error of the mean (SEM), n = 4. A two-sided t-test without corrections for multiple comparisons was used for comparisons. *p = 0.005 vs. vehicle. ^#p = 0.015 vs. vehicle. ^●p = 0.038 vs. M-PTH(1-14). °p = 0.008 vs. M-PTH(1-14). The sequence of M-PTH(1-14) used here differs from PTH(1-14) in Fig. 2 and is UVUEIQLMHQXAKW where U is Aib and X is homoarginine. Source data are provided in the Source Data File. […] Traces for the calcemic responses of individual mice is found in Supplementary Fig. 18. Source data can be found in the Source Data file.
Mice (CD1 female, age 11 weeks) were treated in accordance with the ethical guidelines adopted by Massachusetts General Hospital. […] Peptides and conjugates were administered at doses that allowed for differentiation between compounds with differing levels of in vivo activity. Statistical analyses were performed assuming Gaussian distribution of data. Mice (n = 4 per compound) were injected subcutaneously with vehicle (10 mM citric acid/150 mM NaCl/0.05% Tween-80, pH 5.0) or vehicle containing PTH or conjugate at a dose of 35 nmol/kg body weight. […] Blood was withdrawn just before injection (t = 0) or at times thereafter. Tail vein blood was collected and immediately analyzed. Blood Ca^2+ concentration was measured with a Siemens RapidLab 348 Ca2+/pH analyzer.

T3 sequence (P49190 25-550): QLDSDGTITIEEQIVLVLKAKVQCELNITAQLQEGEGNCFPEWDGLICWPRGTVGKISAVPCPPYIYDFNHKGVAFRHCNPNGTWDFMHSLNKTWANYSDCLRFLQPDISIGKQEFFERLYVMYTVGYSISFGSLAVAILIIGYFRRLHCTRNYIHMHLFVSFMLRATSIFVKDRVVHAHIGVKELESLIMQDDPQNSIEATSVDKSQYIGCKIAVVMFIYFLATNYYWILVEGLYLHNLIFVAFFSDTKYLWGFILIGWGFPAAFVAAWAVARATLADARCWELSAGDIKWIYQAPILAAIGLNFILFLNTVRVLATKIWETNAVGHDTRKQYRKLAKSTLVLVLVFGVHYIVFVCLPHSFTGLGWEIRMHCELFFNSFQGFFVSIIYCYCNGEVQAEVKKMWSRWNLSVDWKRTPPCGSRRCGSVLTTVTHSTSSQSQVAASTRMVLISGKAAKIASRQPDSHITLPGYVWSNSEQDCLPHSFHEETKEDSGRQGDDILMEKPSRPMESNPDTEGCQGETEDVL

Q: With `CC[C@H](C)[C@H](NC(=O)[C@H](CCC(=O)O)NC(=O)C(C)(C)NC(=O)[C@@H](NC(=O)[C@H](C)N)C(C)C)C(=O)N[C@@H](CCC(N)=O)C(=O)N[C@@H](CC(C)C)C(=O)N[C@@H](CCSC)C(=O)N[C@@H](Cc1c[nH]cn1)C(=O)N[C@@H](CCC(N)=O)C(=O)N[C@@H](CCCNC(=N)N)C(=O)N[C@@H](CS)C(N)=O` [PTH(1-11)] (H-AV[Aib]EIQLMHQRC-NH2) as the compound, how does the EC50 [1] read?
A: 246 nM

Q: And the EC50 [2]?
A: 79 ± 45 nM

Q: What about the “response at 100 uM” value ([3]; 100 uM) of the same compound?
A: 20%

Q: And the EC50 [3]?
A: > 100000 nM

Q: For `CC[C@H](C)[C@H](NC(=O)[C@H](CCC(=O)O)NC(=O)[C@H](CO)NC(=O)[C@@H](NC(=O)[C@@H](N)CO)C(C)C)C(=O)N[C@@H](CCC(N)=O)C(=O)N[C@@H](CC(C)C)C(=O)N[C@@H](CCSC)C(=O)N[C@@H](Cc1c[nH]cn1)C(=O)N[C@@H](CC(N)=O)C(=O)N[C@@H](CC(C)C)C(=O)NCC(=O)N[C@@H](CCCCN)C(=O)N[C@@H](Cc1c[nH]cn1)C(=O)N[C@@H](CC(C)C)C(=O)N[C@@H](CC(N)=O)C(=O)N[C@@H](CO)C(=O)N[C@@H](CCSC)C(=O)N[C@@H](CCC(=O)O)C(=O)N[C@@H](CCCNC(=N)N)C(=O)N[C@H](C(=O)N[C@@H](CCC(=O)O)C(=O)N[C@@H](Cc1c[nH]c2ccccc12)C(=O)N[C@@H](CC(C)C)C(=O)N[C@@H](CCCNC(=N)N)C(=O)N[C@@H](CCCCN)C(=O)N[C@@H](CCCCN)C(=O)N[C@@H](CC(C)C)C(=O)N[C@@H](CCC(N)=O)C(=O)N[C@@H](CC(=O)O)C(=O)N[C@H](C(=O)N[C@@H](Cc1c[nH]cn1)C(=O)N[C@@H](CC(N)=O)C(=O)N[C@@H](Cc1ccccc1)C(=O)N[C@@H](CS)C(N)=O)C(C)C)C(C)C` [PTH(1-34)], which EC50 [1] is on record?
A: > 500 nM and 689 nM

Q: And the EC50 [2]?
A: 0.4 ± 0.8 nM

Q: What about the EC50 [3] of the same compound?
A: 1.45 ± 2.42 nM

Q: Which “cAMP activity” value [4] does the source give for “G3-PTH(1-14): PTH(1-14) analog with an N-terminal triglycine extension (SVSEIQLMHNLGKH; N-terminal triglycine extension; UniProt P01270 32-45, looked up, fragment)” here?
A: reduction in potency

Q: With “UVUEIQLMHQXAKW [M-PTH(1-14), modified PTH(1-14) analog used in mice, UVUEIQLMHQXAKW, U is Aib and X is homoarginine]” as the compound, how does the “blood ionized calcium response” value ([5]; 35 nmol/kg s.c., CD1 female mice, n = 4, single experiment) read?
A: little if any activity

Q: And the “iCa measurement, blood ionized calcium” value ([5]; 1 h after 35 nmol/kg s.c., 1st of 4 in group (mouse # 5, 9, 13))?
A: 1.36 mM

Q: What about the “iCa measurement, blood ionized calcium” value ([5]; 1 h after 35 nmol/kg s.c., 2nd of 4 in group (mouse # 6, 10, 14)) of the same compound?
A: 1.34 mM

Q: What about the “iCa measurement, blood ionized calcium” value ([5]; 1 h after 35 nmol/kg s.c., 3rd of 4 in group (mouse # 7, 11, 15)) of the same compound?
A: 1.29 mM

Q: What about the “iCa measurement, blood ionized calcium” value ([5]; 1 h after 35 nmol/kg s.c., 4th of 4 in group (mouse # 8, 12, 16)) of the same compound?
A: 1.33 mM

Q: What about the “iCa measurement, blood ionized calcium” value ([5]; 2 h after 35 nmol/kg s.c., 1st of 4 in group (mouse # 5, 9, 13)) of the same compound?
A: 1.31 mM

Q: And the “iCa measurement, blood ionized calcium” value ([5]; 2 h after 35 nmol/kg s.c., 2nd of 4 in group (mouse # 6, 10, 14))?
A: 1.32 mM

Q: And the “iCa measurement, blood ionized calcium” value ([5]; 2 h after 35 nmol/kg s.c., 3rd of 4 in group (mouse # 7, 11, 15))?
A: 1.27 mM

Q: And the “iCa measurement, blood ionized calcium” value ([5]; 2 h after 35 nmol/kg s.c., 4th of 4 in group (mouse # 8, 12, 16))?
A: 1.28 mM

Q: And the “ionized Ca, group value quoted by reviewer” value ([5]; 2h after injection, 35 nmol/kg s.c.)?
A: 1.29 mM

Q: What about the “iCa measurement, blood ionized calcium” value ([5]; 4 h after 35 nmol/kg s.c., 1st of 4 in group (mouse # 5, 9, 13)) of the same compound?
A: 1.31 mM

Q: What about the “iCa measurement, blood ionized calcium” value ([5]; 4 h after 35 nmol/kg s.c., 2nd of 4 in group (mouse # 6, 10, 14)) of the same compound?
A: 1.33 mM

Q: And the “iCa measurement, blood ionized calcium” value ([5]; 4 h after 35 nmol/kg s.c., 3rd of 4 in group (mouse # 7, 11, 15))?
A: 1.29 mM

Q: And the “iCa measurement, blood ionized calcium” value ([5]; 4 h after 35 nmol/kg s.c., 4th of 4 in group (mouse # 8, 12, 16))?
A: 1.29 mM

Q: And the “iCa measurement, blood ionized calcium” value ([5]; 8 h after 35 nmol/kg s.c., 1st of 4 in group (mouse # 5, 9, 13))?
A: 1.33 mM

Q: And the “iCa measurement, blood ionized calcium” value ([5]; 8 h after 35 nmol/kg s.c., 2nd of 4 in group (mouse # 6, 10, 14))?
A: 1.30 mM

Q: What about the “iCa measurement, blood ionized calcium” value ([5]; 8 h after 35 nmol/kg s.c., 3rd of 4 in group (mouse # 7, 11, 15)) of the same compound?
A: 1.28 mM

Q: And the “iCa measurement, blood ionized calcium” value ([5]; 8 h after 35 nmol/kg s.c., 4th of 4 in group (mouse # 8, 12, 16))?
A: 1.30 mM
